Laboratory results: patent US20120157422A1, “MARKER” (UCL BUSINESS PLC, priority 2009, published 2012)

Key:
high risk women = settings: versus placebo; cited from earlier work
[1] = system: women at increased risk of preterm delivery; test: PREMET subgroup providing saliva samples: metronidazole versus placebo; assay type: in vivo, human; settings: 17 women on metronidazole vs 7 on placebo (36.4 weeks), p=0.73, no significant difference
From the text: A group of women at increased risk of preterm delivery participating in a study to assess the potential benefit of metronidazole in the prevention of preterm delivery (The PREMET study') provided saliva specimens from 24 weeks of gestation until 34 weeks or delivery in order to interrogate further the association between the steroid hormone profile and gestational age at delivery.
In the PREMET study 892 women with singleton pregnancies, who had at least one risk factor for preterm delivery, were recruited between 23^+0 and 24^+6 weeks over a four and a half year period.^1 Eligibility included singleton pregnancy with a history of preterm birth or preterm prelabour rupture of the membranes before 37 completed weeks of gestation, previous late miscarriage, uterine anatomical abnormality, cervical surgery prior to the index pregnancy or current cervical cerclage. Women were screened for cervico-vaginal fetal fibronectin (fFN) at 24 and 27 weeks gestation. Those who were fFN positive (≧50 ng/mL) were randomised to receive a one week course of metronidazole or placebo.
Weekly saliva samples, provided from 24 weeks of gestation until 34 weeks or delivery, were analysed for saliva E3 and progesterone by radioimmunoassay as previously described.^3 Briefly, aliquots (100 μL) of saliva were mixed with 50 μL sodium carbonate solution pH 10.5 and extracted with 10 volumes of diethyl ether. […]

[2] = system: women at increased risk of preterm delivery; settings: whole PREMET study, fFN positive women, one week course; cited from earlier work

| Compound | benefit of the intervention (high risk women) | gestational age at delivery [1] [weeks] | preterm delivery associated with treatment [2] |
| --- | --- | --- | --- |
| CCCCCC(=O)O[C@]1(C(C)=O)CC[C@H]2[C@@H]3CCC4=CC(=O)CC[C@]4(C)[C@H]3CC[C@@]21C [17α hydroxyprogesterone caproate] | significant benefit |  |  |
| Cc1ncc([N+](=O)[O-])n1CCO [metronidazole] |  | 35.6 | small but significant increase |
